This note sets out measurements from ChEMBL document CHEMBL6083251, “"Pseudosubstrate Envelope"/Free Energy Perturbation-Guided Design and Mechanistic Investigations of Benzothiazole HIV Capsid Modulators with High Ligand Efficiency” (J Med Chem, 2024).

The term half-life denotes the time in which the quantity being followed falls by half. Low values mean rapid decline, high ones slow decline. As usually defined, the Kd is the concentration at which binding is half-saturated. The Tmax is the time at which the peak concentration occurs. As a reminder, the Cmax is the highest concentration seen after dosing. As usually defined, the AUC(0-inf) is the area under the concentration-time curve extrapolated to infinity. A word on the EC50: it is the concentration giving half of the maximal effect. For orientation: bioavailability means the share of a dose that reaches the circulation, judged against a reference dose that is usually intravenous. A low value points to poor availability.

Molecules are shown by their SMILES. Calls of active or inactive are those of the source. No cut-off for these calls is given here.

Data set [1] is described as follows: Acute toxicity in male Kunming mouse assessed as convulsion at 1000 mg/kg, IG administered via gavage. Format: organism-based. The note with it: in vivo, po.
The nature of data set [2]: Subacute toxicity in male Kunming mouse assessed as hypoactivity at 50 mg/kg, po administered every other day for 14 days. In kind it is organism-based. As to conditions: in vivo, 336 h, time 14 day.
Data set [3] is described as follows: Selectivity index, ratio of CC50 for human MT4 cells to EC50 for HIV-2 ROD infected in human MT-4 cells. In kind it is toxicity, cell-based. As to conditions: read-out: Selectivity Index.
In data set [4] the target is Structural capsid protein (Human immunodeficiency virus 1) (UniProt Q76129). The data set can be described thus: Binding affinity to HIV-1 hexameric capsid protein assessed as reduction in NUP153 binding to capsid protein by competition assay based SPR analysis. As to conditions: filed as modulator. In general terms: SPR reads the build-up and loss of mass on a sensor chip optically.

The nature of data set [5]: Acute toxicity in female Kunming mouse assessed as sedation at 1000 mg/kg, IG administered via gavage. The note with it: in vivo, po. In kind it is organism-based.
Data set [6] can be described thus: Selectivity index, ratio of CC50 for human MT4 cells to EC50 for wild type HIV-1 IIIB infected in human MT4 cells. Format: toxicity, cell-based. As to conditions: read-out: Selectivity Index.
Data set [7] in a line: Half life in male Sprague-Dawley rat at 2 mg/kg, iv measured upto 24 hrs by LC-MS/MS analysis. Format: ADME, organism-based. The note with it: in vivo.
For data set [8], the target named is Structural capsid protein (Human immunodeficiency virus 1, UniProt Q76129). Nature of the data set: Binding affinity to monomeric HIV-1 NL4.3 capsid protein assessed as dissociation constant by SPR assay.
Data set [9] can be described thus: Tmax in male Sprague-Dawley rat at 2 mg/kg, iv measured upto 24 hrs by LC-MS/MS analysis. Format: ADME, organism-based. As to conditions: in vivo.
Data set [10] can be described thus: Subacute toxicity in male Kunming mouse assessed as hunched posture at 50 mg/kg, po administered every other day for 14 days. Format: organism-based. As to conditions: in vivo, 336 h, time 14 day.
Data set [11] is described as follows: Acute toxicity in female Kunming mouse assessed as body weight gain at 1000 mg/kg, IG administered via gavage. Format: organism-based. As to conditions: in vivo, po.
A short description of data set [12]: Cmax in male Sprague-Dawley rat at 10 mg/kg, sc measured upto 24 hrs by LC-MS/MS analysis. In kind it is ADME, organism-based. The note with it: in vivo.
The nature of data set [13]: AUC(0 to infinity) in male Sprague-Dawley rat at 10 mg/kg, sc measured upto 24 hrs by LC-MS/MS analysis. Format: ADME, organism-based. As to conditions: in vivo.
Data set [14] has as its system Human immunodeficiency virus 2. The data set can be described thus: Anti-HIV activity against HIV-2 ROD infected in human MT-4 cells assessed as protection against virus-induced cytopathic effect incubated for 5 days by spectrophotometric based MTT assay. Format: functional, organism-based. As to conditions: Human immunodeficiency virus 2, ROD, MT4, 120 h.
A short description of data set [15]: Subacute toxicity in male Kunming mouse assessed as change in body weight at 50 mg/kg, po administered every other day for 14 days. Format: organism-based. The note with it: in vivo, 336 h, time 14 day.
Data set [16] is described as follows: […] bioavailability in male Sprague-Dawley rat at 10 mg/kg measured upto 24 hrs by LC-MS/MS analysis. Format: ADME, organism-based. The note with it: in vivo.

Sequence of Structural capsid protein (Human immunodeficiency virus 1) (Q76129 as listed by the source): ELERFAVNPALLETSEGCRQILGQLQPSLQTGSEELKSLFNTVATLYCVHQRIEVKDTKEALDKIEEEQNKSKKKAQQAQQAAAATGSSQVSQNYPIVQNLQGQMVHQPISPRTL
Sequence of Structural capsid protein (Q76129 whole entry): as the sequence (Q76129 as listed by the source) above

As to `CN(C(=O)[C@H](Cc1cc(F)cc(F)c1)NC(=O)Cc1c[nH]c2ccc(O)cc12)c1ccc2scnc2c1`, the Activity entry in [1], in [2], in [5], in [10], in [11] and in data set [15] was “Non-toxic” throughout. In addition, the figures for the selectivity ratio in data set [3] and in data set [6] were 1360 and 49400, respectively. In addition, the outcome in [4] was Active. The half-life in data set [7] was 11.9 min. In data set [8], the Kd turned out to be 81.1 nM. Also, the time of peak concentration (Tmax) in data set [9] was 4.98 min. In data set [12], this molecule came in with a Cmax of 4.99 ng/mL. This molecule also gave an AUC(0-inf) in data set [13] of 33.6 ng·h/mL. In addition, the half-maximal effective concentration (EC50) in [14] was found to be 98 nM. The bioavailability in [16] was 84.2%.
